Measured values reported in patent US7368576B2, “Dipeptidyl peptidase IV inhibitors and their uses as anti-cancer agents” (Probiodrug AG, priority 2001, dated 2008).
Entries after “also recorded” stand apart in the source; their conditions may differ. Counter-ions that a name gives are not always drawn.

Key:
MADB106 tumor cells [1] = assay: In vivo cancer cell adhesion assay (CFSE labeled cells in lungs); design: species or system F344 rats; conditions: 30 min after inoculation
Protocol: (§1) Cell culture, injection of tumor cells, dissection of the animals and immunohistochemistry were conducted as previously described (von Hörsten et al., 2000). In brief, 1×10^6 MADB106 tumor cells derived from log phase of tumor growth were injected via the lateral tail vein and lungs removed at different time points thereafter. For in situ quantification of tumor cells at early time points after injection (30 min), cells were vital dye stained using the fluorescein derivate 5- (and -6)-carboxyfluorescein diacetate succinimidyl ester (CFSE) before injection.
Control sections were included in which one or both primary antibodies were omitted.
Vital dye (Carboxyfluorescein; CFSE) labeling of MADB106 tumor cells allows the quantification of tumor cells and NK cells in thick sections of lung tissue by stereology in situ (von Hörsten et al, 2000). In the present study we produced thin sections (8 μm) of the same lungs (n=10) and performed additional microscopic counting by image analysis of DE1 positive cells. This was done to further simplify the previously validated stereological quantification technique. Therefore, in the present study, the assessment of DE1 positive tumor cells in lung tissue from different substrains 30 min after tumor inoculation was carried out using image analysis approach. […] Each right upper lobe of the lungs was sectioned at 6 randomly chosen non-adjacent levels. From each level, three sections were evaluated.

MADB106 tumor cells [2] = assay: Cancer colonization assay (lung surface tumor colonies); type: in vivo; conditions: F344 rats, 2 weeks after MADB106 injection; for number of lung surface tumor colonies, comparison of inhibitors: chronic intragastric infusion, isoleucyl thiazolidine fumarate 4 mg/24 h, the others 0.1 mg/24 h, vs. saline SHAM
Protocol: as §1
as §1, with “In” for “Cell culture, injection of tumor cells, dissection of the animals and immunohistochemistry were conducted as previously described (von Hörsten et al., 2000). In”
(§2) Osmotic minipumps (Alzet model 2ML4; flow rate, 2.5 μl/hr; Alza Corporation), administering a constant supply of the different compounds, aseptically prefilled with either saline or DPIV inhibitor were placed subcutaneously in the abdominal area. Minipums were attached to a cannula via polyethylene tubing. The cannula was implanted intragastrically with a heating-induced enlarged tip of the cannula in the lumen of the gaster.

MADB106 tumor cells [3] = assay: Body weight change in rats with lung metastasis; type: in vivo; conditions: F344 rats, chronic intragastric infusion via osmotic minipumps, 0.04, 0.4, 4 mg/24 h, 2 weeks after MADB106 injection, post-hoc significant at 0.4 mg and 4 mg
Protocol: as §2
Data from in vivo body weight gain and number of lung surface tumor colonies were analyzed by one-way ANOVAs and Fisher's PLSD post hoc tests, if appropriate. An asterisk indicates significant post hoc effects vs. saline (SHAM) treated controls obtained by Fisher's PLSD. All data are presented as means±S.E.M.

MADB106 tumor cells [4] = assay: Cancer colonization assay (lung surface tumor colonies); type: in vivo, F344 rats; conditions: F344USA rats, 2 mg i.v. + 2 mg i.p., 2 weeks after MADB106 injection, vs. saline; fumarate
[5] = REINHOLD, D., et al., 1998; cited from earlier work

CC[C@H](C)[C@H](N)C(=O)N1CCCC1C#N.O=C(O)C(F)(F)F (stereo partly drawn) [isoleucyl cyanopyrrolidine TFA]
tumor cell adhesion, CFSE positive cells in lung tissue (MADB106 tumor cells [1]; wild-type F344USA rats, single injection i.v. + i.p., vs. saline, TFA): no significant effect; also recorded: significant differences vs. saline treated controls were not found
number of lung surface tumor colonies, comparison of inhibitors (MADB106 tumor cells [2]; TFA): significant reduction of lung colony numbers
number of lung surface tumor colonies, comparison of inhibitors (MADB106 tumor cells [2]; listed as isoleucyl cyano pyrrolidine TFA, TFA): dose-dependently reduced
body weight change (cancer-induced weight loss) (MADB106 tumor cells [3]): dose-dependently reduced

CC[C@H](C)[C@H](N)C(=O)N1CCSC1 [Isoleucyl thiazolidine fumarate]
tumor cell adhesion, CFSE positive cells in lung tissue (MADB106 tumor cells [1]; DPIV mutant F344GER and F344JAP rats, single injection 2 mg i.v. + 2 mg i.p., fumarate): significantly modified; also recorded: promoting effect
tumor cell adhesion, CFSE positive cells in lung tissue (MADB106 tumor cells [1]; wild-type F344USA rats, single injection i.v. + i.p., vs. saline, fumarate): did not significantly affect tumor adhesion; also recorded: lack of effects
number of lung surface tumor colonies, different dosages (MADB106 tumor cells [2]; chronic intragastric infusion 0.04, 0.4, 4 mg/24 h, post-hoc significant at 4 mg, fumarate): significant effect; also recorded: dose dependent reduction of lung colony numbers
number of lung surface tumor colonies, comparison of inhibitors (MADB106 tumor cells [2]; fumarate): dose-dependently reduced; also recorded: significant reduction of lung colony numbers
body weight change (cancer-induced weight loss) (MADB106 tumor cells [3]; fumarate): dose-dependently reduced; also recorded: dose dependent reduction of the loss of body weight
number of lung surface tumor colonies after single injection (MADB106 tumor cells [4]): no significant effect; also recorded: no significant differences

N[C@@H](CCCCNC(=O)OCc1ccc([N+](=O)[O-])cc1)C(=O)N1CCSC1 [Lys(Z-NO2)-Thia]
transport [5]: transported completely

N[C@@H](CCC(=O)NCC(=O)O)C(=O)N1CCSC1 [Glu(Gly)-Thia]
transport [5]: transported completely
